Experiments:
[1] = system: PKCδ; experiment: Western blotting of total PKCδ and phosphor-PKCδ (Thr505) in 4T1 cells; format: cell-based, mouse; conditions: 4T1, 5 hrs; M4N 80 μM, Ro 5 μM, Ly 20 μM, Des 150 μM
Protocol: The sample volumes were adjusted by the total protein amount. Protein assay was performed by Bio-Rad Protein Assay (Bio-Rad Laboratories, Inc. Hercules, Calif.). The samples were resolved by the standard SDS-polyacrylamide gel electrophoresis and transferred to nitrocellulose membrane (Amersham Biosciences, Bjorkgatan, Sweden). The membranes were blocked with skim milk, and incubated with primary antibodies at 4° C. overnight and then with secondary antibody conjugated with horse radish peroxidase at room temperature for 2 hrs. The signals were detected by western blot chemiluminescence reagent plus (New England Nuclear Life Science Products, Boston, Mass.).

[2] = system: tumors; conditions: intravenous infusion, cited from earlier work
[3] = system: 4T1 cells; experiment: MTT cell growth assay in 4T1 cells; format: cell-based, mouse
Protocol: (§1) Cell Culture Either cell line 4T1 or 67NR was a gift from Dr. Miller (20). The cells were cultured in RPMI1640 medium supplemented with glucose (14 mM), pyruvate (1 mM), penicillin (100 units/ml), streptomycin (100 μg/ml), and fetal bovine serum (10%), buffered with 25 mM HEPES (pH 7.4). LNCaP human prostate cancer cell line was purchased from American Type Culture Collection (Manassas, Va.). The cell line was cultured in RPMI1640 medium supplemented with glucose (14 mM), pyruvate (1 mM), penicillin (100 units/ml), streptomycin (100 μg/ml), and fetal bovine serum (10%). Drugs were dissolved in dimethyl sulfoxide (DMSO) at a suitable concentration so that the final concentration of DMSO in the medium was less than 0.1%.
(§2) MTT assay: Cells were incubated in PBS (−) supplemented with 5% fetal calf serum and 0.5 mg/ml MTT, 3-(4,5-Dimethylthiazol-2-yl)-2,5-diphenyltetrazolium bromide (Sigma, Saint Louis, Mo.) for 2 hrs. After the incubation, the cells were dissolved in dimethyl sulfoxide and the color of the solutions was measured by a spectrophotometer at wavelengths of 540 and 690 nm. The values correlated with viable cell numbers were obtained by subtracting the optical density at 690 nm from that, at 540 nm.

[4] = system: HIF; experiment: Western blotting of HIF in 67NR cells; format: cell-based, mouse; conditions: M4N 80 μM
Protocol: (§3) Western blotting: After cells had been grown in […] flasks and treated with reagents, the cells were washed with PBS (−) three times and suspended in RIP A buffer (150 mM NaCl, 50 mM Tris-HCl (pH 8,0), 0.1% SDS, 1% NP40, and 0.5% deoxycholate) supplemented with protease inhibitor cocktail (Calbiochem, San Diego, Calif.). The sample volumes were adjusted by the total protein amount. Protein assay was performed by Bio-Rad Protein Assay (Bio-Rad Laboratories, Inc. Hercules, Calif.). The samples were resolved by the standard SDS-polyacrylamide gel electrophoresis and transferred to nitrocellulose membrane (Amersham Biosciences, Bjorkgatan, Sweden). The membranes were blocked with skim milk, and incubated with primary antibodies at 4° C. overnight and then with secondary antibody conjugated with horse radish peroxidase at room temperature for 2 hrs. The signals were detected by western blot chemiluminescence reagent plus (New England Nuclear Life Science Products, Boston, Mass.).

[5] = system: 4T1 cells; experiment: TUNEL apoptosis assay in 4T1 cells; format: cell-based, mouse; conditions: 4T1, 48 hr after treatment, M4N 80 μM
Protocol: as §1
Apoptosis assay: Simple TLTNEL assay was conducted by using TUNEL apoptosis detection kit (Upstate, Temecula, Calif.) with some modification. For the evaluation of the effect of PKCδ wild type and dominant negative vectors on TUNEL-positive cell death, we first transfected 4T1 or 67NR cells with these vectors by effectene (Qiagen, Valencia, Calif.). Wild type PKCδ vector is constructed from wild type PKCδ gene and pEGFP (Promega, Madison, Wis.). Dominant negative PKCδ vector is constructed from PKCδ gene mutated at a 376th amino acid residue (threonine) and pEGFP (Promega, Madison, Wis.) This threonine residue is located in ATP-binding domain of protein kinase Cδ, and therefore essential for any kinase reaction of the protein so that this mutant protein supposedly function as dominant negative. As a control we used pEGFP-N3 vector was used. These vectors contain green fluorescent protein (GFP) gene to be used as a transfection marker. The vectors are kind gifts from Dr. Yuspa (National Institutes of Health, Bethesda, Md.) (88). Twenty four hours after transfection, the cells were treated with M4N, Rottlerin, or Ly294002. Then 24 hrs after this treatment with these reagents, the cells were fixed with 10% formaldehyde in phosphate buffered saline without calcium and magnesium (PBS (−)). The cells were then incubated with rabbit anti-GFP antibody (MBL International, Woburn, Mass.) followed by treatment with anti-rabbit IgG antibody conjugated with fluorescein (Promega, Madison, Wis.). TUNEL staining was conducted by using TUNEL apoptosis detection kit (Upstate, Temecula, Calif.) except for using Streptavidin-Alexa Fluor 568 (Molecular Probes, Eugene, Oreg.) instead of Avidine-Rhodamine contained in the kit. Cell death was evaluated by dividing the number of TUNEL-positive cells among the cells positive with anti-GFP staining by the number of these GFP-positive cells.

[6] = system: PKCδ; experiment: Immunocytochemistry of PKCδ cellular localization in LNCaP cells; format: cell-based, human; conditions: 5 hrs
Protocol: (§4) Immunocytocheimstry: Cells were cultured on glass cover slips coated with poly-L-ornithine (Sigma, Saint Louis, Mo.). At 5 hrs after treatment with drugs, the cells were fixed with 10% formaldehyde in diluted in PBS (−) and washed with PBS (−) three times. After permeabilized by 0.2% Tryton X-100 and 1% goat serum diluted in PBS (−), the cells were blocked by PBS (−) containing 5% goat serum. The cells were then incubated with primary antibodies diluted in PBS (−) containing 0.5% bovine serum albumin (BSA), and with secondary antibodies, which is either anti-IgG conjugated with fluorescein (Vector Laboratories. Burlingame, Calif.), diluted in PBS (−) containing 0.5% BSA. The cells were observed through Zeiss fluorescent microscope (Carl Zeiss, Thornwood, N.Y.).

[7] = system: PKCδ; experiment: Immunocytochemistry of PKCδ cellular localization in 4T1 cells; format: cell-based, mouse; conditions: 4T1, 5 hrs
Protocol: as §4

[8] = daily (1 mg/day) IV injection, nude mice carrying human tumor xenografts; cited from earlier work
[9] = system: PDK-1/Akt pathway-related proteins; experiment: Western blotting of PDK-1/Akt pathway-related proteins in 67NR cells; format: cell-based, mouse; conditions: 5 hrs after treatment
Protocol: as §3

[10] = system: LNCaP human prostate cancer cells; experiment: MTT cell growth assay in LNCaP cells; format: cell-based; conditions: 24 hrs, M4N 80 μM, Ro 5 μM, Ly 20 μM
Protocol: as §1, §2

## COc1ccc(C[C@@H](C)[C@@H](C)Cc2ccc(OC)c(OC)c2)cc1OC [M4N, tetra-O-methyl nordihydroguaiaretic acid]
[1]
  amount of phosphorylated PKCδ at Thr505: induced phosphorylation
[2]; Phase I/II
  disease stabilization in patients: long term stabilization of disease in some patients
[2]
  tumor shrinkage in patients: tumor shrinkage has rarely been seen
[3]; 4T1, 20 μM
  cell growth (MTT) at 20 μM: significant effect of the drug to reduce cell growth
[3]; 4T1, MTT
  concentration at which cell growth stopped: 80 µM
  time after treatment at which effect on cell growth was evident: 42 h
[3]; 4T1, different concentrations of M4N
  cell growth (MTT): reduced the cell growth of 4T1 cells depending on the concentration of the drug
[4]
  effect on Desferoxamine-mediated HIF induction: instead enhanced
[5]
  TUNEL-positive cell death: did not detect many TUNEL-positive cells
[6]
  expression and nuclear level of total PKCδ: Neither M4N, Ro, nor Ly treatment caused any remarkable change
  nuclear expression of phosphor-PKCδ (Thr507): augmented
[7]
  cellular distribution / nuclear staining of total PKCδ: did not change much
[7]; with Desferoxamine 150 μM
  nuclear staining for phosphor-PKCδ (Thr505) in the presence of Des: markedly augmented nuclear staining
[7]; without Desferoxamine co-treatment
  nuclear staining for phosphor-PKCδ (Thr505): augmented staining
[8]
  M4N level accumulated in blood and tumors: above 1 mM
[9]
  total Akt expression: not changed much
[9]; M4N 80 μM
  expression of phosphorylated PDK (Ser241), Akt (Ser473), PRAS40 (Thr246), Raf (Ser259), MEK (Ser217/221): significant reduction
[10]
  cell growth (MTT): able to reduce cell growth almost as much as a combination treatment

Reference: USRE46907E1, “Suppression of cancer growth and metastasis using nordihydroguaiaretic acid derivatives with metabolic modulators” (THE JOHNS HOPKINS UNIVERSITY, priority 2008, dated 2018)
